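Tested at 5 concentrations; 48 h exposure; 96-well plates; endpoints linearly interpolated, else capped at highest concentration. Here, GI50 denotes the concentration required for 50% inhibition of growth. The concentration for full growth arrest is given as TGI.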 Bounds are passed on as bounds.

Holding throughout (assay): growth of human tumour cells (NCI), 48 h
Assay [1] has as its system LOX IMVI melanoma.
Assay [2] concerns OVCAR-4 ovarian.
The test system of assay [3] is BT-549 breast.
Assay [4] concerns SK-MEL-2 melanoma.
The test system of assay [5] is MCF7 breast.
Assay [6] relates to RPMI-8226 leukemia.
The test system of assay [7] is HT29 colon.
Assay [8] concerns MDA-MB-231 breast.
Assay [9] has as its system DU-145 prostate.
Assay [10] has as its system HOP-62 NSCLC.

For the compound `O=C1/C(=C/c2ccc(F)c(F)c2)CN(C(=O)C(Cl)Cl)C/C1=C\c1ccc(F)c(F)c1`, the GI50 in assay [1] is 0.0222 µM; in assay [2], 0.233 µM; in [3] it was 0.0837 µM; in assay [4], 0.262 µM; in assay [5] it was 0.0424 µM; in assay [6], 0.0186 µM. Also, the GI50 is 0.0359 µM in [7], 0.194 µM in assay [8], 0.312 µM in assay [9] and 0.239 µM in assay [10]. The TGI worked out at 0.0549 µM in [1]; 1.24 µM in assay [2]; 0.34 µM in assay [3]; 0.785 µM in assay [4]; 0.181 µM in [5]; 0.0871 µM in assay [6]. Besides, the results for the TGI in [8], in assay [9] and in assay [10] were 0.692 µM, 0.925 µM and 0.745 µM, respectively.
Turning to `CC(CN1CC(=O)NC(=O)C1)N1CC(=O)NC(=O)C1` (stereo not given), the TGI is more than 750 µM in [1]; more than 750 µM in assay [2]; more than 750 µM in assay [3]; 741 µM in [4]; more than 750 µM in [5]; more than 750 µM in assay [6]. Moreover, the TGI in assay [7] was more than 687 µM; in assay [8], more than 750 µM; in assay [9] it was more than 750 µM; in [10] it was 709 µM. Also, in assay [10], the GI50 is 114 µM.
For the compound `C=C(C)[C@@H]1CC[C@]2(COCCCNCCCN)CC[C@]3(C)[C@H](CC[C@@H]4[C@@]5(C)CC[C@H](OCCCN)C(C)(C)[C@@H]5CC[C@]43C)[C@@H]12`, the GI50 in [1] was 0.846 µM; in assay [2], 0.934 µM; in [3], 6.86 µM; in assay [4] it was 6.86 µM; in [5], 0.879 µM; in assay [6], 1.07 µM. For the same compound, the GI50 in assay [7] is 0.813 µM; in assay [8], 0.863 µM; in [9], 0.895 µM; in [10], 0.831 µM. The TGI in assay [1] came out at 1.57 µM; in assay [2] it was 1.78 µM; in [3], 14.2 µM; in [4], 13.8 µM; in assay [5] it was 1.7 µM; in assay [6], 2.56 µM. Further, the TGI in [7] was determined as 1.53 µM; in assay [8], 1.67 µM; in assay [9], 1.62 µM; in assay [10], 1.62 µM.
For the compound `CCCCCCCN(CCCCCCC)C(=N)c1ccnc2ccccc12`, the GI50 in assay [1] was 1.42 µM; in assay [2], 1.35 µM; in assay [3], 1.36 µM; in assay [4] it was 1.71 µM; in [5], 1.71 µM; in assay [6], 1.65 µM. Further, the GI50 in assay [7] is 1.24 µM; in [8], 1.62 µM; in [9], 1.6 µM; in assay [10], 1.16 µM. Moreover, the TGI in assay [1] is 2.82 µM; in assay [2] it was 3.05 µM; in assay [3] it was 2.74 µM; in assay [4] it was 3.35 µM; in assay [5], 3.32 µM; in [6], 4.21 µM. Moreover, the TGI in assay [7] turned out to be 2.87 µM; in assay [8], 3.58 µM; in [9] it was 3.04 µM; in assay [10], 2.65 µM.
For the compound `Cc1cn(CCC(N)C(=O)O)c(=O)[nH]c1=O` (stereo not given), the TGI in assay [1], in assay [2], in [3], in [4], in assay [5] and in assay [6] was more than 100 µM in each case. In addition, the TGI in assay [7], in assay [8], in assay [9] and in assay [10] was more than 100 µM each time.
In the case of `CC(CN(C)C)S(=O)(=O)c1ccc(-c2cnc(N)c(C(=O)Nc3ccccc3)n2)cc1` (stereo not given), the GI50 in [1] is 2.82 µM; in assay [2], 6.95 µM; in assay [3] it was 6.43 µM; in [4], 4.31 µM; in assay [5], 1.58 µM; in [6], 13.8 µM. Further, the GI50 in assay [7] is 2.68 µM; in [8], 10.6 µM; in [9] it was 4.56 µM; in assay [10], 8.16 µM. The TGI in [1] was 16.7 µM; in assay [2], 54.2 µM; in assay [3], 27.2 µM; in assay [4], 17.6 µM; in [5], 38.8 µM; in [6] it was 48.9 µM. Further, the TGI in assay [7] was 13.4 µM; in assay [8], 27.6 µM; in [9], more than 49.8 µM; in assay [10], 36.2 µM.
Take `COc1ccc(C(C#N)=C2C=CC(=NO)C=C2)cc1`: the GI50 is 1.91 µM in [1]; 5.85 µM in [2]; 14.4 µM in [3]; 2.59 µM in assay [4]; 2.88 µM in assay [5]; 3.2 µM in assay [6]. Moreover, the GI50 in assay [7] was 3.59 µM; in assay [8], 12.6 µM; in assay [9], 1.92 µM; in assay [10], 2.47 µM. The TGI in assay [1] stood at 4.5 µM; in [2] it was 19.6 µM; in assay [3], 29 µM; in [4], 6.18 µM; in assay [5] it was 13.8 µM; in [6] it was 17.9 µM. Moreover, the TGI in [7] worked out at 12.5 µM; in assay [8] it was 35.3 µM; in assay [9], 4.42 µM; in assay [10] it was 6.5 µM.
Regarding `Cc1c(N)nc([C@H](CC(N)=O)NC[C@H](N)C(N)=O)nc1C(=O)N[C@H](C(=O)N[C@H](C)[C@@H](O)CC(=O)N[C@H](C(=O)NC(O[C@@H]1O[C@@H](C)[C@@H](N)[C@@H](O)[C@H]1O)C(O)c1nc(-c2nc(C(=O)NCCCCN)cs2)cs1)[C@@H](C)O)[C@@H](O[C@@H]1O[C@@H](CO)[C@@H](O)[C@H](O)[C@@H]1O[C@H]1O[C@H](CO)[C@@H](O)[C@H](OC(N)=O)[C@@H]1O)c1c[nH]cn1` (stereo not given in full), the TGI in assay [1], in assay [2], in assay [3], in assay [4], in assay [5] and in assay [6] was more than 50 µM in each case. Besides, the TGI in [7], in [8], in assay [9] and in assay [10] was more than 50 µM in each case.
Turning to `O=P(O)(O)OCC1OC(n2cnc3c(NCc4ccco4)ncnc32)C(O)C1O` (stereo not given), the GI50 was 0.374 µM in assay [1]; 2.62 µM in [2]; 0.575 µM in assay [3]; 11.1 µM in [4]; 0.776 µM in [5]; 0.298 µM in assay [6]. Besides, the GI50 in assay [7] is 2.98 µM; in assay [8] it was 0.479 µM; in assay [9], 0.57 µM; in [10], 2.24 µM. The TGI in assay [1] was 1.47 µM; in assay [2], more than 41 µM; in [3] it was 3.85 µM; in [4], more than 50.7 µM; in [5], more than 21.6 µM; in [6], 2.66 µM. Besides, the TGI in assay [7] was more than 100 µM; in assay [8] it was 13.9 µM; in assay [9], 2.4 µM; in assay [10], 19.4 µM.
`O=C(O)C1CCN(Cc2oc(CO)cc(=O)c2O)C1` (stereo not given): the TGI in [1], in assay [2], in assay [3], in assay [4], in [5] and in [6] was more than 100 µM throughout. The TGI in [7], in assay [8], in assay [9] and in assay [10] was more than 100 µM throughout.
As for `Nc1ncnc2c1c(-c1ccc(Oc3ccccc3)cc1)nn2C[C@H]1SSC[C@@H]1O`, the GI50 in assay [1] is 0.257 µM; in assay [2], 1.44 µM; in assay [3] it was 3.63 µM; in assay [4] it was 0.262 µM; in [5] it was 0.289 µM; in assay [6], 4.2 µM. The GI50 in [7] is 0.304 µM; in assay [8], 0.934 µM; in assay [9] it was 1.7 µM; in [10] it was 0.26 µM. For the same compound, the TGI is 1.79 µM in assay [1]; 19.8 µM in [2]; 13.5 µM in assay [3]; 2.33 µM in assay [4]; 4.37 µM in assay [5]; 20.4 µM in assay [6]. Besides, the TGI in assay [7] was 7.35 µM; in [8], 7.84 µM; in assay [9], 10.6 µM; in assay [10] it was 3.15 µM.
